# Test results taken from patent publication US10336808B2, “MHC peptide complexes and uses thereof in infectious diseases” (priority 2007, dated 2019).
# How the values were obtained:
# Type in all cases: cell-based, human
# [1] = tested on: T2 cells loaded with peptide; experiment: 51-Cr release assay of expanded T cell clones
# Description: The ten expanded T cell clones isolated by Flow sorting as shown in example 39 were tested for their specificity by analysis in a standard 51-Cr release assay. […] One of these BclX(L)173-182 specific CD8 T-cell clones [Clone 9] were expanded for further analyses.
# [2] = tested on: Bcl-X(L)-specific, CD8 positive T cells in PBL; experiment: ELISPOT ex vivo with BclX(L) peptide; conditions: PBL from a breast cancer patient, with vs without peptide, FIG. 15
# Description: In example 22 the best binding BclX(L) 10-mer peptide for HLA-A*0201 was identified to be […] (SEQ ID NO.: 46196). This peptide has then been tested in ELISPOT to see if it were able to detect the presence Bcl-X(L)-specific, CD8 positive T cells in PBL (Peripheral Blood Lymphocytes) from a breast cancer patient. PBL from a breast cancer patient was analyzed by ELISPOT ex vivo either with or without the Bcl-X(L)173-182 peptide ([…] (SEQ ID NO.: 46196)), […] in doublets. The number of spots was counted using the Immunospot Series 2.0 Analyzer (CTL Analysers).
# [3] = tested on: T2 cells pulsed with peptide; experiment: 51Cr-release assays with Bcl-X(L)173-182 specific clone 9
# Excerpt: The Bcl-X(L)173-182 specific clone 9 was expanded for additional 2 weeks before the cytotoxic potential was examined further in 51Cr-release assays.
# [4] = CD8 T-cell clones 8, 9, 10, 11 and 12, FIG. 17
Sequence,"lysis of peptide pulsed T2 cells [1, 4]",ELISPOT detection of Bcl-X(L)-specific CD8 positive T cells (number of spots) [2],"lysis of peptide pulsed T2 cells ([1]; expanded clones 7, 13, 15, 17 and 18)","cell lysis of T2 cells pulsed with different concentrations of peptide ([3]; clone 9, E:T ratio 1:1, FIG. 18)","cell lysis of peptide pulsed T2 cells ([3]; clone 9, three E:T ratios, vs irrelevant peptide, FIG. 18)"
"GLQHWVPEL [BA4697-105, irrelevant peptide, reference compound]",without killing,,,,
YLNDHLEPWI,effectively lysed,clearly shows the presence of BclX(L) specific T-cells,did not show specific lysis,significant even at low concentrations,necessary to get killing of the target cell
